Assay results: ChEMBL document CHEMBL1201862, “PubChem BioAssay data set” (2004)
Where “and” joins values, the source holds several entries; their conditions need not be identical. Identical values can stand only once. Calls of active or inactive are those of the source.

Legend:
[1] = target: Dual specificity protein kinase CLK1 (Homo sapiens, UniProt P49759); experiment: CLK1 kinase inhibitors, off-target check, dose response, selectivity assay for Dyrk1A inhibitor project, biochemical, cherry-picked samples (AID 588811)
DNA topoisomerase = DNA topoisomerase (Yersinia pestis, UniProt A0A2S9PM60); experiment: Y. pestis Topo-I inhibitors, cleavage product readout, dose response, biochemical, cherry-pick (AID 588525)
Sequence of DNA topoisomerase (A0A2S9PM60 whole entry): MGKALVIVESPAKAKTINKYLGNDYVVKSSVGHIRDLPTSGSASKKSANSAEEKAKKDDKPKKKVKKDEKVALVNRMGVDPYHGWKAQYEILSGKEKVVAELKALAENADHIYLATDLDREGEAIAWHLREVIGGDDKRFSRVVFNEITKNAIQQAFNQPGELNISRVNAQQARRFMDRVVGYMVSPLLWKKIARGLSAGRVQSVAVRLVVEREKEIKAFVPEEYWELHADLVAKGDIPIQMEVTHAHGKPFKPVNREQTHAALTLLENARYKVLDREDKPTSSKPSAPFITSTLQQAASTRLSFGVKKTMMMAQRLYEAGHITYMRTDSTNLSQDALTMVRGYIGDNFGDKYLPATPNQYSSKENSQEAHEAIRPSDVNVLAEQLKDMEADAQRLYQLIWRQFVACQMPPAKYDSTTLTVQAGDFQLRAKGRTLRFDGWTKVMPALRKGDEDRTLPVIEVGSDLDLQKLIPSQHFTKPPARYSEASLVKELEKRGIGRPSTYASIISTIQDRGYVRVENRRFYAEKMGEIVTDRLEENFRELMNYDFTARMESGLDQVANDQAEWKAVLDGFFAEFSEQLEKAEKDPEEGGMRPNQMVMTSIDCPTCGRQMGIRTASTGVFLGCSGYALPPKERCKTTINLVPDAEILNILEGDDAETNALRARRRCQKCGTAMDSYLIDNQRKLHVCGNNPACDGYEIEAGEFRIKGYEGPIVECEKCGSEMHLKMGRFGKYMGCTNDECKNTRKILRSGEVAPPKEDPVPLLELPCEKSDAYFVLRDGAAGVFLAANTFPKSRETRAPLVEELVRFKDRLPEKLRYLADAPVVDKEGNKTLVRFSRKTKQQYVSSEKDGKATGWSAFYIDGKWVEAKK

Escherichia coli = experiment: microbe, parasite or virus in culture
[2] = system: Streptococcus sp. 'group A'; experiment: growth inhibition of control SK(-) GAS strain, dose response, counter-screen for streptokinase expression inhibitor project, luminescence, kanamycin, BacTiterGlo, confirmation (AID 1900); assay type: functional, organism-based
[3] = target: Photoreceptor-specific nuclear receptor (Homo sapiens, UniProt Q9Y5X4); assay type: functional, cell-based;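 also: CHO-S cells with Gal4-NCOR and VP16-NR2E3 two-hybrid luciferase reporter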
Sequence of Photoreceptor-specific nuclear receptor (Q9Y5X4 whole entry, the tested form may be a part): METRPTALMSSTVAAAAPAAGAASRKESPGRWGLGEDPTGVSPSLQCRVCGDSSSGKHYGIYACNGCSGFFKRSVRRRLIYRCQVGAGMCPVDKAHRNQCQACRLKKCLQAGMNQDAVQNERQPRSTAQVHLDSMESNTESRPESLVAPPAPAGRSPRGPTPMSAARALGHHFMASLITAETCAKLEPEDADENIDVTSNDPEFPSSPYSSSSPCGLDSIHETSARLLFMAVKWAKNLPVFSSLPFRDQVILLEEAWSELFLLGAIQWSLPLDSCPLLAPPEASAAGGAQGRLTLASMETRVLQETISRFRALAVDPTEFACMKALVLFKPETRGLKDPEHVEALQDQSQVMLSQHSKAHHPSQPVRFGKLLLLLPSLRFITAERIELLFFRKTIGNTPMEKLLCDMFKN

Streptokinase A = target: T1, Streptokinase A (Streptococcus pyogenes serotype M1, UniProt P10520); experiment: S. pyogenes streptokinase expression inhibitors, potency, dose response, plasminogen activation absorbance, OD405 (AID 1914); assay type: functional, Streptococcus pyogenes M1 GAS;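 also: secreted streptokinase activity via plasminogen activation per viability signal from cell pellet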
T1 sequence (P10520 whole entry): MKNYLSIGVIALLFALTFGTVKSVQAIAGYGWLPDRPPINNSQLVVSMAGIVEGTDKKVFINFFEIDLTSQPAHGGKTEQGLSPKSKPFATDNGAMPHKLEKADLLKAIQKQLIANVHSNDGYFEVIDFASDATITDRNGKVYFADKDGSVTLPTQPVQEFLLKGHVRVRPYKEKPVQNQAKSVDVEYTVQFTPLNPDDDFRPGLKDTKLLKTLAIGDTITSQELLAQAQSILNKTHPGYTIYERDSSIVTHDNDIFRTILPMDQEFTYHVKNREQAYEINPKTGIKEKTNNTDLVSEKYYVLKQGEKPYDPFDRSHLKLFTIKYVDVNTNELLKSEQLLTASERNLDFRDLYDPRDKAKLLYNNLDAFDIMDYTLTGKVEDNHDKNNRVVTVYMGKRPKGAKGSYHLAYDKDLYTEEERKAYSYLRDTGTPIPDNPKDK

Streptococcus = experiment: Group A Streptococcus viability loss, dose response, counter-screen for streptokinase expression inhibitor project, luminescence, BacTiterGlo (AID 1915); assay type: functional, organism-based;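 also: potency for reduction of bacterial viability or growth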
[4] = target: T2, Long-chain-fatty-acid--AMP ligase FadD28 (Mycobacterium tuberculosis, UniProt P9WQ59); experiment: Fluorescence polarization aasay to screen for inhibitors that compete for the binding of FadD28 to a bisubstrate Measured in Biochemical System Using Plate Reader - 2147-01_Inhibitor_Dose_CherryPick_Activity.; assay type: functional, Mycobacterium tuberculosis H37Rv
T2 sequence (P9WQ59 whole entry): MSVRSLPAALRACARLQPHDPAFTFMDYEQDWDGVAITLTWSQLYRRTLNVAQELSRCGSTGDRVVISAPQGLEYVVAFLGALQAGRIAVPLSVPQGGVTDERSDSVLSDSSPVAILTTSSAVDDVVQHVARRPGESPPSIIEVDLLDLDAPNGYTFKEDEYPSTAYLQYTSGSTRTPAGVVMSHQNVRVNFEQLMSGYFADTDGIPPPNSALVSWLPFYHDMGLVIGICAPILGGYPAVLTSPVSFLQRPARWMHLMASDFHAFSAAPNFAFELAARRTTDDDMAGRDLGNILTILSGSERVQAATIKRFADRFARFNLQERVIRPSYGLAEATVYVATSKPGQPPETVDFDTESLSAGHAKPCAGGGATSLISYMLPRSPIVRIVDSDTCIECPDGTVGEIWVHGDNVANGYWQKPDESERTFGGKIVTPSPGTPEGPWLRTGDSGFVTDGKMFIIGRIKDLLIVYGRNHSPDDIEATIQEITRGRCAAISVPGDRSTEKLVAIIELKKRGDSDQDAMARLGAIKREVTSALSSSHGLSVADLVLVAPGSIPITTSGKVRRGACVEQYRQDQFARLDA

[5] = target: Dual specificity tyrosine-phosphorylation-regulated kinase 1A (Rattus norvegicus, UniProt Q63470); assay type: biochemical, Homo sapiens
Cytochrome P450 2C9 = Cytochrome P450 2C9 (Homo sapiens, UniProt P11712)
[6] = target: Voltage-gated inwardly rectifying potassium channel KCNH2 (Homo sapiens, UniProt Q12809); conditions: Potency;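 also: confirmatory quantitative high-throughput screen measuring inhibition of hERG channel activity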
Cytochrome P450 2C19 [7] = target: T3, Cytochrome P450 2C19 (Homo sapiens, UniProt P33261); experiment: qHTS Assay for Inhibitors and Substrates of Cytochrome P450 2C19. [Related pubchem assays: 410 ]; assay type: ADME; conditions: read-out: Potency
T3 sequence (P33261 whole entry): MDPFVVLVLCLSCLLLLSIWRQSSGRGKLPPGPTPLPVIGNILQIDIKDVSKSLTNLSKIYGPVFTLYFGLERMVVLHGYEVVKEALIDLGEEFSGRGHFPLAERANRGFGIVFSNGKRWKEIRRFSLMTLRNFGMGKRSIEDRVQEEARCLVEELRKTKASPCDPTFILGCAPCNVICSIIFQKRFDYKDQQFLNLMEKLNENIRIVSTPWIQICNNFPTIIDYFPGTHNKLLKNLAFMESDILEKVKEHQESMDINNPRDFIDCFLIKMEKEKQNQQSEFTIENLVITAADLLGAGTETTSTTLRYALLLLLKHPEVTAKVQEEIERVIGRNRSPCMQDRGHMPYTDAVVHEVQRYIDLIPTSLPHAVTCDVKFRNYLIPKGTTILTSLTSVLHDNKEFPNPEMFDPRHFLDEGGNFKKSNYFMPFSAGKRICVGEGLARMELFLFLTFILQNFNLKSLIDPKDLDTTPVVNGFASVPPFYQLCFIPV

Cytochrome P450 2C19 [8] = target: T3, Cytochrome P450 2C19; experiment: Cytochrome panel assay with activity outcomes. Panel member name: p450-cyp2c19 Compounds with AC50 equal or less than 10 uM are considered active; assay type: functional; conditions: read-out: AC50
[9] = target: T4, Carboxy-terminal domain RNA polymerase II polypeptide A small phosphatase 1 (Homo sapiens, UniProt Q9GZU7); experiment: inhibitors of CTDSP1, concentration-response testing, biochemical assay, absorbance-based, actives from ultra-high-throughput screening (AID 540297); assay type: functional
T4 sequence (Q9GZU7 whole entry): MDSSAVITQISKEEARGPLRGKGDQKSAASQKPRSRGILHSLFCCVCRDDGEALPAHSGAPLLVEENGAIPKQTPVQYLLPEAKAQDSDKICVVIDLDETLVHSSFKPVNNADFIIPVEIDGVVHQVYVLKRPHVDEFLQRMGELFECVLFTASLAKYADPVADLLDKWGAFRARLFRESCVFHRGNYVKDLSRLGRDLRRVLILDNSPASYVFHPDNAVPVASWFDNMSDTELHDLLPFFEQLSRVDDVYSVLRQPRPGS

[10] = target: T5, Rac GTPase-activating protein 1 (Homo sapiens, UniProt Q9H0H5); experiment: MgcRacGAP GTPase-activating activity inhibitors, confirmation, biochemical, ADP Hunter fluorescence, primary and confirmatory (AID 624330); assay type: functional
T5 sequence (Q9H0H5 whole entry): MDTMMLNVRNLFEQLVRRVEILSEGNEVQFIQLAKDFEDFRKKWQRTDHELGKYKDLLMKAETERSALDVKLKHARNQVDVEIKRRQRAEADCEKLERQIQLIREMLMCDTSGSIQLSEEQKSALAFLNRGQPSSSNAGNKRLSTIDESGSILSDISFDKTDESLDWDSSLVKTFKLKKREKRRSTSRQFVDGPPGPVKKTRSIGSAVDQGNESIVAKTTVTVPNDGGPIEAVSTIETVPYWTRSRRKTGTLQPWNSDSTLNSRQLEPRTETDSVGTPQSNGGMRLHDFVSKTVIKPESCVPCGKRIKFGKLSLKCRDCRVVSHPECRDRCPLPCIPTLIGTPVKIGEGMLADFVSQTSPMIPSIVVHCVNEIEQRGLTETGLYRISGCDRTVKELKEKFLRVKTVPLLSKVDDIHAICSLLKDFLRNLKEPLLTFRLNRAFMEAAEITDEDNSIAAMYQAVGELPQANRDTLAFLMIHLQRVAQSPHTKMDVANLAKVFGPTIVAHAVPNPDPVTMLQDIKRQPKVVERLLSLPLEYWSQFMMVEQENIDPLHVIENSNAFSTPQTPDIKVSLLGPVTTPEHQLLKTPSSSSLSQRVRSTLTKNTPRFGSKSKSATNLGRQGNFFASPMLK

[11] = target: Aryl hydrocarbon receptor (Homo sapiens, UniProt P35869); conditions: Potency;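 also: confirmatory quantitative high-throughput screen measuring activation of the AhR signaling pathway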
Sequence of Aryl hydrocarbon receptor (P35869 whole entry): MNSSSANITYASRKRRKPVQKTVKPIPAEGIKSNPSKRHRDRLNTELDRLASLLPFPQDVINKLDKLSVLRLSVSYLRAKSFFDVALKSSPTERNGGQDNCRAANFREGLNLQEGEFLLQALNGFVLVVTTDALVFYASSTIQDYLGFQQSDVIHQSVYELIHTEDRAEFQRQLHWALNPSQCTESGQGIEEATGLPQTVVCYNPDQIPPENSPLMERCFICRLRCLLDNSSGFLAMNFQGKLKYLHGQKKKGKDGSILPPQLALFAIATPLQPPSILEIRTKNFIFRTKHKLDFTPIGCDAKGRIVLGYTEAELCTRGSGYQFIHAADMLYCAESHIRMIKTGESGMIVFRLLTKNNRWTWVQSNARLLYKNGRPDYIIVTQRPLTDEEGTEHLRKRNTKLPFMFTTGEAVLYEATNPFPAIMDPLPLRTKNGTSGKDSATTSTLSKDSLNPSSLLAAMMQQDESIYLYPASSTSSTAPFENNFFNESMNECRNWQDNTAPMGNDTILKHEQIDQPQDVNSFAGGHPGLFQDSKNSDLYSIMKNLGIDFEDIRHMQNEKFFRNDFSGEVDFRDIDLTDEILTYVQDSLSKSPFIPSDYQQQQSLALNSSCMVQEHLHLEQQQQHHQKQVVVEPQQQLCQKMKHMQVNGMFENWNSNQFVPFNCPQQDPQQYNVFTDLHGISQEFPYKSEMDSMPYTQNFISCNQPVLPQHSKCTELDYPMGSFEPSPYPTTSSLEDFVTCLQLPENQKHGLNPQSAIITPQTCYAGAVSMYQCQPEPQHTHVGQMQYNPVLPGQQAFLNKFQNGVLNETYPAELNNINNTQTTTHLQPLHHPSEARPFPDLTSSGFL

Genome polyprotein = Genome polyprotein (dengue virus type 2, UniProt P29990); experiment: Dengue-2 NS5 methyltransferase inhibitors, primary screen, biochemical, confirmation dose response (AID 588689); assay type: functional
Vero = Vero cell cytotoxicity, cytotoxicity control for flavivirus capping enzyme inhibitors (AID 588742); assay type: functional; conditions: Chlorocebus sabaeus
A-375 [12] = experiment: A375 melanoma cell viability reduction, dose response, counter-screen for MITF modulator project, cherry-pick samples, set 2 (AID 540335); assay type: functional, cell-based; conditions: Homo sapiens
[13] = target: T6, Microphthalmia-associated transcription factor (Homo sapiens, UniProt O75030); experiment: TRPM1 promoter luciferase signal decrease, dose response, MITF inhibitor project, cell-based, SK-MEL-5, cherry-picked, set 3 (AID 493073); assay type: functional
T6 sequence (O75030 whole entry): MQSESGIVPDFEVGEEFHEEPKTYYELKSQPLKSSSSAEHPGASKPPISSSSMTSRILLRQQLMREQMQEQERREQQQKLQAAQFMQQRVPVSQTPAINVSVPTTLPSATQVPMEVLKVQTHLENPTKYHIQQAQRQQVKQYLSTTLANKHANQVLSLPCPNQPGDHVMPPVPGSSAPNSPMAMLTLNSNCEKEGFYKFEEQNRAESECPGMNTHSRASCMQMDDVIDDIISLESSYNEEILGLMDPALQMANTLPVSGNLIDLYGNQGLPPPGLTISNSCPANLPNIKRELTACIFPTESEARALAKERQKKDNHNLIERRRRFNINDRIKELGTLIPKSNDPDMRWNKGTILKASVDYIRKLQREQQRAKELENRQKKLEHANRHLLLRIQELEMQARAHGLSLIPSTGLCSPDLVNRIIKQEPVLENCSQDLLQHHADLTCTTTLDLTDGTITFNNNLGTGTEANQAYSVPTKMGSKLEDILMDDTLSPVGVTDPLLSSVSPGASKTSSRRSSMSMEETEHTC

A-375 [14] = experiment: MITF: Counter assay: A375 proliferation Measured in Cell-Based System Using Plate Reader - 2084-03_Inhibitor_Dose_DryPowder_Activity. [Related pubchem assays (depositor defined):AID488944]; assay type: functional; conditions: Homo sapiens
[15] = target: Beta-2 adrenergic receptor (Homo sapiens, UniProt P07550); experiment: beta2AR agonists driving receptor internalization, dose response, cell-based, FAP fluorogen, flow cytometry, cherry pick 1 (AID 588763); assay type: functional
Sequence of Beta-2 adrenergic receptor (P07550 whole entry): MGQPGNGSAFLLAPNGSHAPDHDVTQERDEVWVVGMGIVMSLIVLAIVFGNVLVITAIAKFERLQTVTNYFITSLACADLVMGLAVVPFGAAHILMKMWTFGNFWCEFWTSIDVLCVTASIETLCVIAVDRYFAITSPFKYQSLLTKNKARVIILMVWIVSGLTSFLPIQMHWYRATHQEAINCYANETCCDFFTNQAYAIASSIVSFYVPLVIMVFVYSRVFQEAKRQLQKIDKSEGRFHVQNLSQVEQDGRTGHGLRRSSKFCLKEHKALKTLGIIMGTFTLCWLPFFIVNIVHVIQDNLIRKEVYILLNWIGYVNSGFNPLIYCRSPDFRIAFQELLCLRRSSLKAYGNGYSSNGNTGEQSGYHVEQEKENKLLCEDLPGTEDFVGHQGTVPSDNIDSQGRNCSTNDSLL

[16] = A Cell Based Secondary Assay To Explore Cytotoxicity of Compounds that Sensitize Mycobacterium Tuberculosis to Beta-Lactam Antibiotics.; assay type: functional
CHO = experiment: cytotoxicity in TLR9-MyD88 CHO cells, dose response, cytotoxicity control for TLR9-MyD88 binding inhibitor project, cell-based, luminescence (AID 588339); assay type: functional, hamster; conditions: Cricetulus griseus;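 also: CHO cells stably coexpressing TLR9 and MyD88 fusions from primary screen; compound exposure lasted 48 hours before viability readout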
[17] = target: T7, Endoribonuclease toxin MazF (Escherichia coli K-12, UniProt P0AE70); experiment: MazF toxin RNase activators, dose response, biochemical, fluorescence, single-stranded RNA substrate, uHTS hits (AID 588481); assay type: functional
T7 sequence (P0AE70 whole entry): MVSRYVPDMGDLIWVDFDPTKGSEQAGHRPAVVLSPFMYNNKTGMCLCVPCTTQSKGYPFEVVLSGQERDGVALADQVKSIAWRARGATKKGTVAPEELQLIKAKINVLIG

Beta Lactamase = Beta Lactamase (Pseudomonas aeruginosa, UniProt Q932Y6); experiment: beta-lactamase reporter inhibitor potency, dose response, artefact control for TLR9-MyD88 binding inhibitor project, BLA reporter cells, FRET fluorescence (AID 588341); assay type: cell-based;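 also: cell based assay in CHO-K1 cells stably expressing beta-lactamase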
Sequence of Beta Lactamase (Q932Y6 whole entry): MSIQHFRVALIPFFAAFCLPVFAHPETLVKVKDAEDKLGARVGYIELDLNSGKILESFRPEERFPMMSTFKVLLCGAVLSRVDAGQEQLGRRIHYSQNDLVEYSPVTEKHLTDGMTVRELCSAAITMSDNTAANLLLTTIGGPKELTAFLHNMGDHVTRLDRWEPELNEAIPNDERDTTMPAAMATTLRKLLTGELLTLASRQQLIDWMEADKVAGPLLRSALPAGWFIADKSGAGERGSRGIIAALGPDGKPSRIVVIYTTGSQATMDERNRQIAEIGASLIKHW

[18] = target: T7, Endoribonuclease toxin MazF; experiment: fluorescent RNA oligo signal without MazF, dose response, counter-screen for MazEF activator project, biochemical, fluorescence, single-stranded RNase substrate (AID 588502); assay type: functional
INS1 = experiment: protection from cytokine-induced mitochondrial depolarization, dose response, cell-based, INS-1E, JC-1 fluorescence ratio, dry powder (AID 488931); assay type: functional; conditions: Rattus norvegicus
CAAX prenyl protease 2 = CAAX prenyl protease 2 (Homo sapiens, UniProt Q9Y256); experiment: human Rce1 protease inhibitors, dose response, biochemical, yeast membranes, quenched-peptide fluorescence, cherry-pick (AID 588849)
Sequence of CAAX prenyl protease 2 (Q9Y256 whole entry): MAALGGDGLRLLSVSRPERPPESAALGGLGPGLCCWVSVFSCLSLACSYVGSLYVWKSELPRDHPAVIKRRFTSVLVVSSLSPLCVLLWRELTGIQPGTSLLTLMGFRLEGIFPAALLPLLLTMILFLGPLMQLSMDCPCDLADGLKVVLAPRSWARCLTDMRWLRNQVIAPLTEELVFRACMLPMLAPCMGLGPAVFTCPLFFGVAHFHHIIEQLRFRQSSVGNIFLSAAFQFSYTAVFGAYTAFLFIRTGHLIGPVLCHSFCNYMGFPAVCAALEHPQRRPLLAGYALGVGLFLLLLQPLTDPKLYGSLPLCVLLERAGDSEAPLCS

[19] = target: Glycogen synthase kinase-3 beta (Homo sapiens, UniProt P49841); experiment: Inhibition of Human GSK-3 beta Activity Measured in Biochemical System Using Microfluidics - 2063-05_Inhibitor_Dose_DryPowder_Activity. [Related pubchem assays (depositor defined):AID2709]
Sequence of Glycogen synthase kinase-3 beta (P49841 whole entry): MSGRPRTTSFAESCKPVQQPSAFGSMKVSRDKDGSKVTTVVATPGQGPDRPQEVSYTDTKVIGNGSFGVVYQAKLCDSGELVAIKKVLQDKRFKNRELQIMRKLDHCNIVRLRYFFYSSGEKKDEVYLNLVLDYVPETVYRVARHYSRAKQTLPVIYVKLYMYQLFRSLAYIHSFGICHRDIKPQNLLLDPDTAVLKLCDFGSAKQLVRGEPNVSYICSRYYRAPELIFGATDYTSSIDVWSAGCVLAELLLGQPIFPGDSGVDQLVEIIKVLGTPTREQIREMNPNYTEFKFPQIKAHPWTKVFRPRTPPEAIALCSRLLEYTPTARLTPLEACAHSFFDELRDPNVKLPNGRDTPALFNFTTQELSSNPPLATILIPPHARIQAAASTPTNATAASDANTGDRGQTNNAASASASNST

[20] = target: Glycogen synthase kinase-3 alpha (Homo sapiens, UniProt P49840); experiment: Inhibition of Human GSK-3 alpha Activity Measured in Biochemical System Using Microfluidics - 2063-06_Inhibitor_Dose_DryPowder_Activity. [Related pubchem assays (depositor defined):AID2709]
Sequence of Glycogen synthase kinase-3 alpha (P49840 whole entry): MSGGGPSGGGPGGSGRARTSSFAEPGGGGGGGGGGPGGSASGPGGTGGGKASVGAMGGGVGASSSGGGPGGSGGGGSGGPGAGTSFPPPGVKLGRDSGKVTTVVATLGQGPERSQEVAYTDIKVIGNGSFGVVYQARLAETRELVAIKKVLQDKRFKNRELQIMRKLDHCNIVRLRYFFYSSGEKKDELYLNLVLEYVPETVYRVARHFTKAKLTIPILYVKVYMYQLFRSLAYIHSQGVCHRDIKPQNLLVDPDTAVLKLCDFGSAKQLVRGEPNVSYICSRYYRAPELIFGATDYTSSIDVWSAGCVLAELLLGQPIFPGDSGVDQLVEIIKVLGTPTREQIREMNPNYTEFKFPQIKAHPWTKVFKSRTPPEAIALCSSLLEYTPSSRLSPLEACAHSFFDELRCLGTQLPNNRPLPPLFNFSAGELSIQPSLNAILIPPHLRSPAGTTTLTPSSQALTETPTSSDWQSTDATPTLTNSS

## c1cncc(CNc2ccnc(-c3ccc4cn[nH]c4c3)n2)c1
[1]
  AC50: 2.01 µM (active)

## CC(C)CN(C(=O)COC(=O)c1cc2ccccc2cc1O)c1c(N)n(Cc2ccccc2)c(=O)[nH]c1=O
DNA topoisomerase
  AC50: 6.2 µM (active)

## CCCCCCCCCCCCN1[C@@H](CC(=O)O)c2cc(C(F)(F)F)ccc2S1(=O)=O
Escherichia coli
  AC50: 8.9 µM (active)
[2]
  EC50: 2.22 µM (active)
[3]
  IC50: 5.7 µM (active)
Streptokinase A
  EC50: 2.28 µM (active)
Streptococcus
  EC50: 10.2 µM (active)
[4]
  AC50: 20.3 µM (active)

## O=c1c(O)c(-c2ccc(O)cc2)oc2cc(O)cc(O)c12 [KAEMPFEROL]
[5]
  AC50: 1.26 µM (active)
Cytochrome P450 2C9
  AC50: 0.00126 µM (inconclusive)
[6]
  AC50: 0.0022 µM (inconclusive)
Cytochrome P450 2C19 [7]
  AC50: 10 µM (inconclusive)
Cytochrome P450 2C19 [8]
  AC50: 6.31 µM (inconclusive)
[9]
  IC50: 9.93 µM (active)
[10]
  IC50: 44.5 µM (active)
[11]
  AC50: 44.7 µM (inconclusive) and 56.2 µM (inconclusive)

## CCc1ccc(N2C(=O)c3sc4nnc(-c5ccccc5)c(=O)n4c3C2=O)cc1
Genome polyprotein
  IC50: 48.5 µM (active)
Vero
  CC50: > 40 µM (active)

## O=C(Nc1ccc(OC(=O)N2CCCCC2)cc1)N1CCOCC1
A-375 [12]
  AC50: > 35 µM (active)
[13]
  AC50: 27.4 µM (active)
A-375 [14]
  AC50: > 35 µM (active)

## O=C(CCCCCn1c(=O)[nH]c2ccsc2c1=O)NCc1ccc(F)cc1
[15]
  EC50: 0.0776 µM (active)

## Nc1c(C(=O)c2cccs2)sc2nsc(SCCN3CCCCC3)c12
[16]
  CC50: > 40 µM (active)
CHO
  IC50: > 49.8 µM (inactive)
[17]
  EC50: 12 µM (active)
Beta Lactamase
  IC50: 9.89 µM (active)
[18]
  EC50: > 99 µM (inactive)

## COc1ccc(S(=O)(=O)Nc2cccc3c2O[C@@H](CN(C)S(=O)(=O)c2ccc(OC)cc2)[C@H](C)CN([C@@H](C)CO)C3=O)cc1
INS1
  AC50: 73.4 µM (active)

## Cc1cccc(NC(=O)c2cc(S(=O)(=O)N3CCCCC3)c[nH]2)c1C
CAAX prenyl protease 2
  AC50: 0.197 µM (active)

## COc1ccc2nc(NC(=O)CCNC(=O)c3ccccc3Cl)sc2c1
[19]
  AC50: 1.53 µM (active)
[20]
  AC50: 8.01 µM (active)
